Assay results reported in US20130084614A1, “METHODS OF REMOVING INHIBITORS FROM CELLULOSIC BIOMASS AND PRODUCING ALCOHOLS” (3M INNOVATIVE PROPERTIES COMPANY, priority 2010, published 2013).
Counter-ions that a name gives are not always drawn. Like-named read-outs stand apart in the source and are kept apart here.

Tests used:
[1] = Confirmatory laboratory extraction of a synthetic inhibitor/sugar mixture; type: physicochemical; conditions: 5 mL synthetic solution + 5 mL solvent, 20° C., HPLC
Excerpt: In order to define a standardized method of comparing solvents, a new parameter called extraction yield was created. Extraction yield is a ratio of the concentration of a species in the extract to the concentration of that species in the feed. […].
Another parameter, the extraction score, was defined in order to rank overall inhibitor removal performance. Each extraction yield of inhibitors and sugars was multiplied by a weighting factor determined by the importance of removing or retaining the particular compound in the feed. The resulting numbers were then summed to calculate the extraction score.
The confirmatory extraction of a synthetic inhibitor/sugar mixture was next carried out using inhibitors and sugars to mimic the conditions in acid-pretreated cellulosic fermentation feed. The synthetic solutions contained 1 g/L each of formic acid, lactic acid, acetic acid, furfural, HMF and vanillin as well as 20 g/L of glucose and 60 g/L of xylose. Five mL of this synthetic solution and 5 mL of solvent were added to a test tube and the test tubes were shaken in a Lab Line Instruments (Mumbai, India) “MULTI-WRIST SHAKER” at a setting of 8 for 10 min at 20° C. The mixture was allowed to settle overnight to phase separate completely. Inhibitor concentrations in each phase were analyzed by an Agilent Technologies (Santa Clara, Calif.) 1100 HPLC system consisting of a quaternary gradient pump, autosampler, heated column compartment, and diode array absorbance detector. Gradient elution was done on a YMC Company Ltd. (Kyoto, Japan) “YMC Carotenoid S-5” (C30) column with 0.05% phosphoric acid and a solvent ramp of 0% acetonitrile/100% water to 90% acetonitrile/10% water and back over 32.5 minutes. Based on the measured concentration of each inhibitor and sugar, extraction yields and scores were calculated and shown in Table 1 and reported as “laboratory extraction yield” and “laboratory extraction score”; (see footnotes 2 and 3).

E. Coli, FBR-5 strain = test: Fermentation of extracted C5 fraction, sugar and ethanol by HPLC; type: cell-based, Escherichia coli
[2] = cited from earlier work
[3] = CE2 liquid/liquid solvent extraction (not membrane), 0 hrs
[4] = CE2 liquid/liquid solvent extraction (not membrane), 24 hrs
[5] = EX4 multilayer cross-flow MSE, 0 hrs
[6] = EX4 multilayer cross-flow MSE, 24 hrs
[7] = EX4 multilayer cross-flow MSE, 48 hrs
[8] = IUPAC-NIST Solubility Data Series / Yaws' Handbook

| SMILES | laboratory extraction yield, Acetic acid [1] | laboratory extraction yield, Formic acid [1] | laboratory extraction yield, Furfural [1] | laboratory extraction yield, HMF [1] | laboratory extraction yield, Lactic acid [1] | laboratory extraction yield, Vanillin [1] | Water Solubility ([2]; literature values) [g/100 mL] | also measured |
| --- | --- | --- | --- | --- | --- | --- | --- | --- |
| CCCCCCCCCCO [1-decanol] | 0.281^3 | 0.180^3 | 0.666^3 | 0.280^3 | 0.120^3 | 0.911^3 | 0.10 | Ethanol (E. Coli, FBR-5 strain; [3]): 0 g/L; Sugar (E. Coli, FBR-5 strain; [3]): 48 g/L; Ethanol (E. Coli, FBR-5 strain; [4]): 23 g/L; Sugar (E. Coli, FBR-5 strain; [4]): 1 g/L; Ethanol (E. Coli, FBR-5 strain; EX3 single layer MSE, 0 hrs): 0 g/L; Sugar (E. Coli, FBR-5 strain; EX3 single layer MSE, 0 hrs): 48 g/L; Ethanol (E. Coli, FBR-5 strain; EX3 single layer MSE, 24 hrs): 20 g/L; Sugar (E. Coli, FBR-5 strain; EX3 single layer MSE, 24 hrs): 3 g/L; Ethanol (E. Coli, FBR-5 strain; [5]): 0 g/L; Sugar (E. Coli, FBR-5 strain; [5]): 50 g/L; Ethanol (E. Coli, FBR-5 strain; [6]): 12 g/L; Sugar (E. Coli, FBR-5 strain; [6]): 30 g/L; Ethanol (E. Coli, FBR-5 strain; [7]): 18 g/L; Sugar (E. Coli, FBR-5 strain; [7]): 12 g/L |
| CCCCCCCCCCCCO [1-dodecanol] | 0.000^3 | 0.020^3 | 0.593^3 | 0.200^3 | 0.050^3 | 0.903^3 | – | – |
| CCCCCCCCO [1-octanol] | 0.361^3 | 0.239^3 | 0.728^3 | 0.360^3 | 0.180^3 | 0.931^3 | 0.11 | – |
| CC(C)CC(O)CC(C)C [2,6-dimethyl-4-heptanol] | 0.301^3 | 0.180^3 | 0.593^3 | 0.220^3 | 0.070^3 | 0.851^3 | 0.045 | – |
| CCCCC(CC)CO (stereo not drawn) [2-ethyl-1-hexanol] | 0.352^3 | 0.213^3 | 0.669^3 | 0.337^3 | 0.112^3 | 0.918^3 | – | – |
| CCCCC(C)O (stereo not drawn) [2-hexanol] | – | – | – | – | – | – | 0.35 | – |
| CCCCCCCC(C)=O [2-nonanone] | – | – | – | – | – | – | 0.050 | – |
| CCCCCCC(C)O (stereo not drawn) [2-octanol] | 0.397^3 | 0.280^3 | 0.687^3 | 0.394^3 | 0.155^3 | 0.937^3 | 0.11 | – |
| CCCCCCC(=O)CC [3-nonanone] | 0.321^3 | 0.130^3 | 0.895^3 | 0.310^3 | 0.030^3 | 0.931^3 | 0.010 | – |
| CC(=O)c1ccccc1 [Acetophenone] | 0.351^3 | 0.234^3 | 0.917^3 | 0.647^3 | 0.137^3 | 0.700^3 | 0.10 | – |
| CCCCNCCCC [Dibutylamine] | – | – | – | – | – | – | 0.35 | – |
| CCCCCCCC/C=C\CCCCCCCCO [Oleyl alcohol] | – | – | – | – | – | – | 0.018 | – |
| CCCCCCCCN(CCCCCCCC)CCCCCCCC [Trioctylamine] | – | – | – | – | – | – | 0.10 | – |
| O=Cc1ccccc1 [benzaldehyde] | 0.301^3 | 0.200^3 | 1.114^3 | 0.841^3 | 0.070^3 | 1.392^3 | 0.01 | – |
| C1CCCCC1 [cyclohexane] | – | – | – | – | – | – | 0.0017 | – |
| C1CCC2CCCCC2C1 (stereo not drawn) [decahydronapthalene] | – | – | – | – | – | – | 0.002 | – |
| CCCCOC(=O)/C=C\C(=O)OCCCC [dibutyl maleate] | – | – | – | – | – | – | – | Ethanol (E. Coli, FBR-5 strain; [3]): 0 g/L; Sugar (E. Coli, FBR-5 strain; [3]): 45 g/L; Ethanol (E. Coli, FBR-5 strain; [4]): 20 g/L; Sugar (E. Coli, FBR-5 strain; [4]): 1 g/L; Ethanol (E. Coli, FBR-5 strain; EX3 single layer MSE, 0 hrs): 0 g/L; Sugar (E. Coli, FBR-5 strain; EX3 single layer MSE, 0 hrs): 51 g/L; Ethanol (E. Coli, FBR-5 strain; EX3 single layer MSE, 24 hrs): 19 g/L; Sugar (E. Coli, FBR-5 strain; EX3 single layer MSE, 24 hrs): 2 g/L |
| CCOCC [diethyl ether, reference compound] | – | – | – | – | – | – | – | Water Solubility [2, 8]: 6.9 grams per 100 mL |
| CCOC(C)=O [ethyl acetate, reference compound] | – | – | – | – | – | – | – | Water Solubility [2, 8]: 8.3 grams per 100 mL |
| CCCC(=O)OCC [ethyl butyrate] | 0.221^3 | 0.160^3 | 0.937^3 | 0.360^3 | 0.050^3 | 1.001^3 | 0.50 | – |
| CC(C)OC(C)C [isopropyl ether] | – | – | – | – | – | – | 0.20 | – |
| CCCCCCCCCC [n-decane] | – | – | – | – | – | – | 0.10 | – |
| CCCCCCCCCCCC [n-dodecane] | – | – | – | – | – | – | 0.10 | – |
| CCCCCC [n-hexane] | – | – | – | – | – | – | 0.10 | – |
| CCCCCCCCCCCCCC [n-tetradecane] | – | – | – | – | – | – | 0.10 | – |
| CCCN(CCC)CCC [tripropylamine] | – | – | – | – | – | – | 0.10 | – |
